# Data: patent US20230151014A1 (Repare Therapeutics Inc., priority 2020, published 2023)
# Target: T1, recombinant human Myt1 (Homo sapiens, UniProt Q99640)
# T1 construct: full length PKMYT1 recombinant human protein expressed in insect cells
# T1 sequence (Q99640 1-499): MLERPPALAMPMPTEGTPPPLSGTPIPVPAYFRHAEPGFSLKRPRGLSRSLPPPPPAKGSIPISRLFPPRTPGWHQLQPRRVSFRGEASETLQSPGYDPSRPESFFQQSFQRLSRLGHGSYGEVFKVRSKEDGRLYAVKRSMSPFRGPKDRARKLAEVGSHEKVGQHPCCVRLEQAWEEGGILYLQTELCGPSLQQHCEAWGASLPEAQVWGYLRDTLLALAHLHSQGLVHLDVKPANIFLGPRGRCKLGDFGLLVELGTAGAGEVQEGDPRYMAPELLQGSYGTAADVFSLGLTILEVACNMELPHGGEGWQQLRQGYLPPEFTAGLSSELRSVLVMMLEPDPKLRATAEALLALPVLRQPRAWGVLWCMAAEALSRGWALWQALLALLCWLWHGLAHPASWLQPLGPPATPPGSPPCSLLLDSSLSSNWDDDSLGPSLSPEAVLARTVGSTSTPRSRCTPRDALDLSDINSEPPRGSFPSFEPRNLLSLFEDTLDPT
# Assay: Myt1 enzymatic assay (ADP-Glo kinase assay, IC50 and % max inhibition)
# Format: biochemical
# Details: recombinant human Myt1 18 nM, ATP 10 μM
# Method: Detection of Myt1 kinase activity utilized a recombinant human Myt1 kinase assay measuring the hydrolysis of ATP using a commercially available ADP-Glo Assay (ADP-Glo™ Kinase Assay from Promega, 10 000 assays, #V9102). […] After this, 5 μL of compounds (diluted in reaction buffer to 0.5% DMSO) was added to the microplate and the plate was spun briefly and incubated at 22° C. for 15 minutes. Ultra-Pure Adenosine Triphosphate (ATP) solution (ADP-Glo kit from Promega) was diluted in reaction buffer and 5 μL was added to the microplate, spun down briefly and incubated for 60 minutes at 30° C. […] After the 60-minute incubation, 15 μL of ADP-Glo reagent was added and the plate was spun briefly and sealed and incubated in the dark for 40 minutes at 22° C. […] Luminescence was read using the Envision (250 ms integration). The IC50 and the % max inhibition were calculated for each inhibitor compound tested.
row,Structure (SMILES),IC50 [nM]
1,Cc1ccc(O)c(C)c1-n1c(N)c(C(N)=O)c2nc(C#CCc3ccccc3)cnc21 [Compound 1],50
2,"Cc1ccc(O)c(C)c1-n1c(N)c(C(N)=O)c2nc(CCC3CCCN3)cnc21 (stereo not drawn) [Compound 2, 6-amino-5-(3-hydroxy-2,6-dimethylphenyl)-2-(2-(pyrrolidin-2-yl)ethyl)-5H-pyrrolo[2,3-b]pyrazine-7-carboxamide]",231
3,Cc1ccc(O)c(C)c1-n1c(N)c(C(N)=O)c2nc(C#CC3CCCN3)cnc21 (stereo not drawn) [Compound 3],462
4,Cc1ccc(O)cc1-n1c(N)c(C(N)=O)c2nc(-c3cn[nH]c3)ccc21 [Compound 5],277
5,"Cc1ccc(O)cc1-n1c(N)c(C(N)=O)c2nc(C3=CCCC3)ccc21 [Compound 6, 2-amino-5-(cyclopenten-1-yl)-1-(5-hydroxy-2-methyl-phenyl)pyrrolo[3,2-b]pyridine-3-carboxamide]",1240
6,Cc1ccc(O)cc1-n1c(N)c(C(N)=O)c2nc(-c3ccc(N4CCOCC4)nc3)ccc21 [Compound 7],605
7,Cc1ccc(O)cc1-n1c(N)c(C(N)=O)c2nc(-c3ccc(N)nc3)ccc21 [Compound 8],164
8,Cc1ccc(O)cc1-n1c(N)c(C(N)=O)c2nc(-c3cccc(C(=O)O)c3)ccc21 [Compound 9],363
9,Cc1ccc(O)cc1-n1c(N)c(C(N)=O)c2nc(-c3ccc(C(=O)O)cc3)ccc21 [Compound 10],187
10,Cc1ccc(O)cc1-n1c(N)c(C(N)=O)c2nc(-c3cc[nH]n3)ccc21 [Compound 11],252
11,Cc1ccc(O)cc1-n1c(N)c(C(N)=O)c2nc(-c3ccn(C)n3)ccc21 [Compound 12],988
12,Cc1ccc(O)cc1-n1c(N)c(C(N)=O)c2nc(-c3ccc(N4CCN(CCO)CC4)cc3)ccc21 [Compound 13],190
13,Cc1ccc(O)cc1-n1c(N)c(C(N)=O)c2nc(-c3cccc(C#N)c3)ccc21 [Compound 14],480
14,Cc1ccc(O)cc1-n1c(N)c(C(N)=O)c2nc(-c3ccc(F)c(Cl)c3)ccc21 [Compound 15],1090
15,"Cc1ccc(O)cc1-n1c(N)c(C(N)=O)c2nc(C#CCN3CCOCC3)ccc21 [Compound 16, 2-amino-1-(5-hydroxy-2-methyl-phenyl)-5-(3-morpholinoprop-1-ynyl)pyrrolo[3,2-b]pyridine-3-carboxamide]",9630
16,Cc1ccc(O)cc1-n1c(N)c(C(N)=O)c2nc(C#CCC(C)(C)O)ccc21 [Compound 17],9060
17,"Cc1ccc(O)cc1-n1c(N)c(C(N)=O)c2nc(CCCN3CCOCC3)ccc21 [Compound 18, 2-amino-1-(5-hydroxy-2-methyl-phenyl)-5-(3-morpholinopropyl)pyrrolo[3,2-b]pyridine-3-carboxamide]",1940
18,Cc1ccc(O)cc1-n1c(N)c(C(N)=O)c2nc(CCCC(C)(C)O)ccc21 [Compound 19],527
19,Cc1ccc(O)cc1-n1c(N)c(C(N)=O)c2nc(-c3cccc(CC(=O)O)c3)ccc21 [Compound 20],182
20,Cc1ccc(O)cc1-n1c(N)c(C(N)=O)c2nc(-c3ccc(CC(=O)O)cc3)ccc21 [Compound 21],283

row,Structure (SMILES),IC50 [nM]
1,Cc1ccc(O)cc1-n1c(N)c(C(N)=O)c2nc(-c3ccnc(N)c3)ccc21 [Compound 22],79
2,Cc1ccc(O)cc1-n1c(N)c(C(N)=O)c2nc(-c3nccs3)ccc21 [Compound 24],29
3,Cc1ccc(O)cc1-n1c(N)c(C(N)=O)c2nc(-c3cccc(F)n3)ccc21 [Compound 25],399
4,"Cc1ccc(O)c(C)c1-n1c(N)c(C(N)=O)c2nc(-c3nccs3)c(C)nc21 [Compound 31, 6-amino-5-(3-hydroxy-2,6-dimethyl-phenyl)-3-methyl-2-thiazol-2-yl-pyrrolo[2,3-b]pyrazine-7-carboxamide]",< 10
5,Cc1ccc(O)c(C)c1-n1c(N)c(C(N)=O)c2nc(-c3nc(C)c(C)s3)cnc21 [Compound 32],< 10
6,Cc1ccc(O)c(C)c1-n1c(N)c(C(N)=O)c2nc(-c3ccccn3)cnc21 [Compound 34],< 10
7,"Cc1ccc(O)c(C)c1-n1c(N)c(C(N)=O)c2nc(-c3ccnc(C(F)(F)F)c3)cnc21 [Compound 35, 6-amino-5-(3-hydroxy-2,6-dimethyl-phenyl)-2-[2-(trifluoromethyl)-4-pyridyl]pyrrolo[2,3-b]pyrazine-7-carboxamide]",< 10
8,Cc1ccc(O)c(C)c1-n1c(N)c(C(N)=O)c2nc(-c3cc(C(F)(F)F)ccn3)cnc21 [Compound 36],14
9,Cc1ccc(O)c(C)c1-n1c(N)c(C(N)=O)c2nc(-c3cncs3)cnc21 [Compound 37],< 10
10,Cc1ccc(O)c(C)c1-n1c(N)c(C(N)=O)c2nc(-c3cnccn3)cnc21 [Compound 38],< 10
11,Cc1ccc(O)c(C)c1-n1c(N)c(C(N)=O)c2nc(-c3ccns3)cnc21 [Compound 41],< 10
12,Cc1c(O)ccc(Cl)c1-n1c(N)c(C(N)=O)c2nc(-c3nccs3)cnc21 [Compound 42],< 10
13,"CNC(=O)C1CCN(c2cnc3c(n2)c(C(N)=O)c(N)n3-c2c(C)ccc(O)c2C)CC1 [Compound 46, 6-amino-5-(3-hydroxy-2,6-dimethyl-phenyl)-2-[4-(methylcarbamoyl)-1-piperidyl]pyrrolo[2,3-b]pyrazine-7-carboxamide]",< 10
14,Cc1ccc(O)c(C)c1-n1c(N)c(C(N)=O)c2nc(-c3ccc(Cl)cn3)cnc21 [Compound 49],< 10
15,Cc1ccc(O)c(C)c1-n1c(N)c(C(N)=O)c2nc(N3CCC(C)(O)CC3)cnc21 [Compound 52],10
16,Cc1ccc(O)c(C)c1-n1c(N)c(C(N)=O)c2nc(N3CCN(C)CC3)cnc21 [Compound 53],16
17,Cc1ccc(O)c(C)c1-n1c(N)c(C(N)=O)c2nc(-c3ccncn3)cnc21 [Compound 57],< 10
18,Cc1ccc(O)c(C)c1-n1c(N)c(C(N)=O)c2nc(C3=CCC(C(=O)N(C)C)CC3)cnc21 (stereo not drawn) [Compound 58],< 10
19,Cc1ccc(O)c(C)c1-n1c(N)c(C(N)=O)c2nc(N3CCOC(C)C3)cnc21 (stereo not drawn) [Compound 59],12
20,Cc1ccc(O)c(C)c1-n1c(N)c(C(N)=O)c2nc(-c3ncco3)cnc21 [Compound 60],10

row,Structure (SMILES),IC50 [nM]
1,Cc1ccc(-c2cnc3c(n2)c(C(N)=O)c(N)n3-c2c(C)ccc(O)c2C)nc1 [Compound 61],< 10
2,Cc1ccc(O)c(C)c1-n1c(N)c(C(N)=O)c2nc(-c3ccc(F)cn3)cnc21 [Compound 64],< 10
3,Cc1ccc(O)c(C)c1-n1c(N)c(C(N)=O)c2nc(-c3c[nH]cn3)cnc21 [Compound 65],< 10
4,Cc1ccc(O)c(C)c1-n1c(N)c(C(N)=O)c2nc(N3CCNC(=O)C3)cnc21 [Compound 66],10
5,Cc1ccc(O)c(C)c1-n1c(N)c(C(N)=O)c2nc(N3CCNCC3)cnc21 [Compound 67],14
6,Cc1ccc(O)c(C)c1-n1c(N)c(C(N)=O)c2nc(-c3ccn(C)n3)cnc21 [Compound 72],11
7,Cc1ccc(O)c(C)c1-n1c(N)c(C(N)=O)c2nc(N3CCC(N4CCOCC4)CC3)cnc21 [Compound 74],14
8,Cc1ccc(O)c(C)c1-n1c(N)c(C(N)=O)c2nc(N3CCS(=O)(=O)CC3)cnc21 [Compound 75],11
9,Cc1ccc(O)c(C)c1-n1c(N)c(C(N)=O)c2nc(-c3cn(C)cn3)cnc21 [Compound 76],< 10
10,Cc1ccc(O)c(C)c1-n1c(N)c(C(N)=O)c2nc(N3CCC(C(=O)N(C)C)CC3)cnc21 [Compound 80],< 10
11,Cc1ccc(O)c(C)c1-n1c(N)c(C(N)=O)c2nc(N3CCCCC3)cnc21 [Compound 81],< 10
12,Cc1ccc(O)c(C)c1-n1c(N)c(C(N)=O)c2nc(C3CCCCC3)cnc21 [Compound 83],< 10
13,Cc1ccc(O)c(C)c1-n1c(N)c(C(N)=O)c2nc(N3CCCC3)cnc21 [Compound 85],< 10
14,Cc1ccc(O)c(C)c1-n1c(N)c(C(N)=O)c2nc(C3=CCCCC3)cnc21 [Compound 86],< 10
15,CC(=O)N1CCN(c2cnc3c(n2)c(C(N)=O)c(N)n3-c2c(C)ccc(O)c2C)CC1 [Compound 87],< 10
16,CCN(CC)c1cnc2c(n1)c(C(N)=O)c(N)n2-c1c(C)ccc(O)c1C [Compound 88],< 10
17,Cc1ccc(O)c(C)c1-n1c(N)c(C(N)=O)c2nc(N3CC4CCC(C3)O4)cnc21 [Compound 92],< 10
18,CCCCc1cnc2c(n1)c(C(N)=O)c(N)n2-c1c(C)ccc(O)c1C [Compound 96],10
19,"CC(=O)c1c(N)n(-c2c(C)ccc(O)c2C)c2ncc(-c3cnccn3)nc12 [Compound 97, 1-[6-amino-5-(3-hydroxy-2,6-dimethyl-phenyl)-2-pyrazin-2-yl-pyrrolo[2,3-b]pyrazin-7-yl]ethenone]",12
20,Cc1ccc(O)c(C)c1-n1c(N)c(C(N)=O)c2nc(C3CC3)c(C)nc21 [Compound 100],< 10
